These are literature values, as cited in patent US8361760B2, “Microbial production of 3-hydroxyacids from glucose and glycolate” (Massachusetts Institute of Technology, priority 2009, dated 2013).

This data set relates to CoA-transferase. Also on record: Relative activity: concentration or dose not given beside the values. The note with it: CoA-transferase activity with carboxylic acid added; for Relative activity: relative to None = 100; for Specific Activity: None = 34.1 units/mg.

Take `O=C(O)/C=C/CC(=O)O` [(E)-Glutaconate]: the Relative activity is 94% and the “Specific Activity” value was 32.1 units/mg.

`O=C(O)CC[C@@H](O)C(=O)O` [(R)-2-Hydroxyglutarate]: the Relative activity was 87% and the “Specific Activity” value was 29.6 units/mg.

On to `C[C@@H](O)C(=O)O` [(R)-Lactate], for which the Relative activity was 27% and the “Specific Activity” value is 9.1 units/mg.

On to `C[C@H](O)C(=O)O` [(S)-Lactate], for which the Relative activity is 46% and the “Specific Activity” value is listed as 15.8 units/mg.

For `C=CC(=O)O` [Acrylate], the Relative activity is 37% and the “Specific Activity” value is on record as 12.7 units/mg.

Take `O=C(O)/C=C/C(=O)O` [Fumarate]: the Relative activity was 96% and the “Specific Activity” value is on record as 32.8 units/mg.

Take `CCC(=O)O` [Propionate]: the Relative activity was 20% and the “Specific Activity” value is 6.8 units/mg.

In the case of `O=C(O)CCC(=O)O` [Succinate], the Relative activity was 87% and the “Specific Activity” value was 29.6 units/mg.
